{"source": "patent US20130217092A1", "about": "“Enhancing Reactivation of Thermostable Reversibly Inactivated Enzymes” (Qiagen GmbH, priority 2006, published 2013)", "assay_type_in_all_cases": "biochemical", "key": {"[1]": {"biological_target": "chemically modified enzyme (Thermus aquaticus, UniProt P19821)", "sequence (P19821 whole entry)": "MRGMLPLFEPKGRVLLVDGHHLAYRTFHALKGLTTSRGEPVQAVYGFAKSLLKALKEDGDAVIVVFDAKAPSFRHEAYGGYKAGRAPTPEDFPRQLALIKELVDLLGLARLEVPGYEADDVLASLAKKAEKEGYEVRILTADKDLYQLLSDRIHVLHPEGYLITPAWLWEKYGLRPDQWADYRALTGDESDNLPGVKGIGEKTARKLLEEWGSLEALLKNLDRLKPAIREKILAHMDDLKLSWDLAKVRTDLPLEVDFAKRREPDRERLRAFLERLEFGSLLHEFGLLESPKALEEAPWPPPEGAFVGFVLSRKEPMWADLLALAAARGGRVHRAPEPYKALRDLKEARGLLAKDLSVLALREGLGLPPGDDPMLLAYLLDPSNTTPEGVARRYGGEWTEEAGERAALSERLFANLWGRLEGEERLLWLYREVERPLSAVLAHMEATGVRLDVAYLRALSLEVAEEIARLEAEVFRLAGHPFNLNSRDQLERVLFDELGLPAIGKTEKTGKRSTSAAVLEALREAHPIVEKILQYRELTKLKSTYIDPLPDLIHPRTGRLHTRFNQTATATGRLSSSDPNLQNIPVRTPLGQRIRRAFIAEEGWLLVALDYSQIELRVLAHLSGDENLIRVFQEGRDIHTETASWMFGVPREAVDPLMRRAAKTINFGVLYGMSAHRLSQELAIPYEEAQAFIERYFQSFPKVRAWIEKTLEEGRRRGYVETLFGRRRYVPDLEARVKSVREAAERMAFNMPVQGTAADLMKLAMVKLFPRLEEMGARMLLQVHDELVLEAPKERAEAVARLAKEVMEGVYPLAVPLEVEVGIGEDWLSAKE", "assay": "Additionally tested compounds, enhancement of enzyme activity of a chemically modified enzyme", "settings": "conditions not stated"}, "[2]": {"biological_target": "T1, HotStarTaq DNA Polymerase (Thermus aquaticus, UniProt P19821)", "T1 construct": "purchased QIAGEN", "T1 sequence (P19821 whole entry)": "as above", "assay": "Fast PCR with ammonium chloride, agarose gel, Example 4", "settings": "10, 20 and 30 mM ammonium chloride vs 0 mM; PCR assays A, B, C; FIG. 3", "method": "Each PCR reaction contained 1.5 units HotStarTaq DNA Polymerase, 10 ng template human or mouse genomic DNA, 200 μM of each dNTP, 0.5 μM of each primer for each different PCR assay (Assay A, primer A1: 5′-GCTTGAGCAACCTGGCTAAGATAGAGG-3′ (SEQ ID NO:7), primer A2: 5′-GAGTTAGCAGGAGGCTGGATGCAGATG-3′ (SEQ ID NO:8); Assay B, primer B1: 5′-CCACAATGGACATCACACAAGTGAG-3′ (SEQ ID NO:9), primer B2: 5′-GATCTTTCTGCCCAGATACCATTCG-3′ (SEQ ID NO:10); Assay C, primer C1: 5′-CCTTGCCTTAGATGTGTCGGCA-3′ (SEQ ID NO:11), primer C2: 5′-CCCAAACCCAACCCATACACAC-3′ (SEQ ID NO:12)) and PCR grade water. PCR reactions were started with an initial enzyme activation step at 95° C. for 5 minutes followed by 35 cycles: 96° C. for 5 seconds, 60° C. for 5 seconds and 68° C. for 30 seconds/kb PCR product size. PCR products were analysed on a 1% TAE agarose gel. M: DNA size ladder (FIG. 3)."}, "[3]": {"biological_target": "T2, unmodified Taq DNA Polymerase (QIAGEN) (Thermus aquaticus, UniProt P19821)", "T2 construct": "purchased QIAGEN", "T2 sequence (P19821 whole entry)": "as the sequence (P19821 whole entry) above", "assay": "SYBR Green I real-time PCR, Example 1 (control enzyme)", "source_text": "(§1) In real-time PCR, the enzymatic reaction is continuously monitored by measuring fluorescence signals throughout the reaction. Double-stranded DNA molecules are generated during the PCR reaction. These PCR products are detected by using SYBR Green I fluorescent dye that binds selectively to dsDNA only. Thus, an increase of fluorescence indicates an increase in PCR product amount and thus activity of the DNA polymerase contained in the reaction. […] Thus, the CT value is a measurement for the enzyme activity contained in the reaction: Low CT values indicate high enzyme activity and high CT values represent lower enzyme activity residing in the reaction.\nA SYBR Green I based PCR reaction was conducted in the presence of unmodified Taq DNA Polymerase (QIAGEN) serving as a control reaction, using HotStarTaq DNA polymerase (QIAGEN) or AmpliTaq Gold (Applied Biosystems). Each reaction contained 0.625 units of the respective DNA polymerase, 1× PCR reaction buffer of the respective DNA polymerase, 200 μM of each dNTP, 0.5 μM primer A: 5′-[…]-3′ (SEQ ID NO:1), 0.5 μM primer B: 5′-[…]-3′ (SEQ ID NO:2), PCR grade water and in case of testing nitrogen-containing compounds as example 100 mM Triazole, final concentration. […] Average CT values were determined from triplicate reactions comparing reactions without the addition of Triazole and with 100 mM Triazole."}, "[4]": {"biological_target": "T3, AmpliTaq Gold (Applied Biosystems) (Thermus aquaticus, UniProt P19821)", "T3 construct": "purchased Applied Biosystems", "T3 sequence (P19821 whole entry)": "as the sequence (P19821 whole entry) above", "assay": "SYBR Green I real-time PCR, Example 1, reactivation of chemically modified enzyme", "source_text": "(§2) As model system to exemplify the invention, hot start PCR was chosen with two commercially available enzymes. […] AmpliTaq Gold (Applied Biosystems) is chemically inactivated using dicarboxylic acid anhydride whereas HotStarTaq (QIAGEN) is chemically inactivated using formaldehyde.\nas §1\n(§3) A SYBR Green I based PCR reaction was conducted in the presence of unmodified Taq DNA Polymerase (QIAGEN) serving as a control reaction, using HotStarTaq DNA polymerase (QIAGEN) or AmpliTaq Gold (Applied Biosystems). Each reaction contained 0.625 units of the respective DNA polymerase, 1× PCR reaction buffer of the respective DNA polymerase, 200 μM of each dNTP, 0.5 μM primer A: 5′-[…]-3′ (SEQ ID NO:1), 0.5 μM primer B: 5′-[…]-3′ (SEQ ID NO:2), PCR grade water and in case of testing nitrogen-containing compounds as example 100 mM Triazole, final concentration. Each reaction contained 10 ng human genomic DNA as amplification substrate. PCR reactions were started with an initial enzyme activation step at 95° C. for 5 minutes followed by 50 cycles: 94° C. for 15 seconds and 60° C. for 60 seconds. Average CT values were determined from triplicate reactions comparing reactions without the addition of Triazole and with 100 mM Triazole."}, "[5]": {"biological_target": "T4, HotStarTaq DNA polymerase (QIAGEN) (Thermus aquaticus, UniProt P19821)", "T4 construct": "purchased QIAGEN", "T4 sequence (P19821 whole entry)": "as the sequence (P19821 whole entry) above", "assay": "SYBR Green I real-time PCR, Example 1, reactivation of chemically modified enzyme", "source_text": "as §2, §1, §3"}, "[6]": {"biological_target": "T1, HotStarTaq DNA Polymerase", "assay": "Fast PCR with shortened cycling times, agarose gel, Example 2", "settings": "100, 200, 300, 400 and 500 mM Triazole vs absence of Triazole; FIG. 1", "method": "Each PCR reaction contained 1.5 units HotStarTaq DNA Polymerase, 10 ng template human genomic DNA, 200 μM of each dNTP, 0.5 μM primer A: 5′-CACACAGCGATGGCAGCTATGC-3′ (SEQ ID NO:3), 0.5 […] primer B: 5′-CCC AGT GAT GGG CCA GCT C-3′ (SEQ ID NO:4), PCR grade water and in case of testing nitrogen-containing compounds as example 100 mM, 200 mM, 300 mM, 400 mM and 500 mM Triazole, final concentration. PCR reactions were started with an initial enzyme activation step at 95° C. for 5 minutes followed by 35 cycles: 96° C. for 5 seconds, 60° C. for 5 seconds and 68° C. for 30 seconds. PCR products were analysed on a 1% TAE agarose gel (FIG. 1)."}, "[7]": {"biological_target": "T1, HotStarTaq DNA Polymerase", "assay": "Fast PCR with 20 mM ammonium chloride and Triazole, agarose gel, Example 5", "method": "System C shown in Example 4 was chosen as model system. Each PCR reaction contained 1.5 units HotStarTaq DNA Polymerase, 10 ng template human genomic DNA, 200 μM of each dNTP, 0.5 μM of each primer A: 5′-CCTTGCCTTAGATGTGTCGGCA-3′ (SEQ ID NO:11), primer B: 5′-CCCAAACCCAACCCATACACAC -3′ (SEQ ID NO:12), and PCR grade water. PCR reactions were started with an initial enzyme activation step at 95° C. for 5 minutes followed by 35 cycles: 96° C. for 5 seconds, 60° C. for 5 seconds and 68° C. for 45 seconds. PCR products from duplicate reactions were analysed on a 1% TAE agarose gel. M: DNA size ladder."}}, "data": [{"compound": "N.O=C(O)c1ccccc1", "note": "[ammonium benzoate]", "values": [{"measurement": "improvement of enzyme activity", "setting": "[1]", "result": "no improvement"}]}, {"compound": "N.N.O=C(O)O", "note": "[ammonium carbonate]", "values": [{"measurement": "improvement of enzyme activity", "setting": "[1]", "result": "no improvement"}]}, {"compound": "Cl.N", "note": "[ammonium chloride]", "values": [{"measurement": "overall enzyme activity of the chemically inactivated enzyme", "setting": "[2]", "result": "increase of overall enzyme activity"}]}, {"compound": "N.N.O=S(=O)(O)O", "note": "[ammonium sulfate]", "values": [{"measurement": "improvement of enzyme activity", "setting": "[1]", "result": "no improvement"}]}, {"compound": "N.N.O=P(O)(O)O", "note": "[di-ammonium hydrogen phosphate]", "values": [{"measurement": "improvement of enzyme activity", "setting": "[1]", "result": "no improvement"}]}, {"compound": "Triazole", "values": [{"measurement": "effect on the enzyme activity", "setting": "[3]; 100 mM Triazole, unmodified Taq DNA polymerase", "result": "no effect"}, {"measurement": "Average CT value with 100 mM Triazole", "setting": "[3]; Taq (unmodified), activation 95° C. for 5 minutes, triplicate reactions, low CT = high enzyme activity", "result": 21.3}, {"measurement": "effect on the enzyme activity", "setting": "[4]; 100 mM Triazole", "result": "clearly higher enzyme activity"}, {"measurement": "Average CT value with 100 mM Triazole", "setting": "[4]; activation 95° C. for 5 minutes, triplicate reactions, low CT = high enzyme activity", "result": 25.6}, {"measurement": "effect on the enzyme activity", "setting": "[5]; 100 mM Triazole, HotStarTaq DNA Polymerase", "result": "clearly higher enzyme activity"}, {"measurement": "Average CT value with 100 mM Triazole", "setting": "[5]; HotStarTaq, activation 95° C. for 5 minutes, triplicate reactions, low CT = high enzyme activity", "result": 35.9}, {"measurement": "enzyme activity / generation of the desired PCR product under fast cycling", "setting": "[6]", "result": "significantly improves enzyme activity"}, {"measurement": "enzyme activity of the chemically modified enzyme", "setting": "[7]; 500 mM Triazole in the presence of 20 mM ammonium chloride", "result": "still higher than in the reaction without Triazole"}, {"measurement": "enzyme activity of the chemically modified enzyme", "setting": "[7]; Triazole 100-500 mM in the presence of 20 mM ammonium chloride vs no Triazole, FIG. 4", "result": "clear benefit for the enzyme activity"}]}, {"compound": "ammonium citrate", "values": [{"measurement": "improvement of enzyme activity", "setting": "[1]", "result": "no improvement"}]}]}
